Bridge positions count the residues as written; N and C are the ends. Square brackets hold non-standard residues; d marks the D form. Peptide text beside a SMILES is read from it. * marks the point of attachment. Phe(4-COOH) = N[C@@H](Cc1ccc(C(=O)O)cc1)C(=O)O; Bip = N[C@@H](Cc1ccc(-c2ccccc2)cc1)C(=O)O; Phe(3-Me) = Cc1cccc(C[C@H](N)C(=O)O)c1; hTyr = N[C@@H](CCc1ccc(O)cc1)C(=O)O; Val(3-OH) = CC(C)(O)[C@H](N)C(=O)O; 4Pal = N[C@@H](Cc1ccncc1)C(=O)O; Cha = N[C@@H](CC1CCCCC1)C(=O)O; Cit = NC(=O)NCCC[C@H](N)C(=O)O; Carboxymethyl = O=C(O)C*; NMeA = CN[C@@H](C)C(=O)O; Dab = NCC[C@H](N)C(=O)O; Dap = NC[C@H](N)C(=O)O

T1 sequence (Q15116 25-288): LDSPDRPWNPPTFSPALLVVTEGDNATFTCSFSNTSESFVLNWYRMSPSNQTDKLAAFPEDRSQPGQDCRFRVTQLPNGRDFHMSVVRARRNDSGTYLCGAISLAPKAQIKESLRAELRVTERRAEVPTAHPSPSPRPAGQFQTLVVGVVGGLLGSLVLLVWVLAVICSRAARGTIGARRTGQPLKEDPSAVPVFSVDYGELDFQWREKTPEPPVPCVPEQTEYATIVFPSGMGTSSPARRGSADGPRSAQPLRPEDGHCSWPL

The test concerns the target T1, PE-labeled human PD-L1-Ig binding to Jurkat cell line over-expressing human PD-1 (Jurkat-PD-1) (Homo sapiens, UniProt Q15116).
T1 construct: expressed in transfected cells; host or cells: Jurkat
Kind of test: Jurkat-PD-1 Cell Binding High-Content Screening Assay (CBA): Method 1. The note with it: Jurkat-hPD-1 cells, PE-labeled PD-L1-Ig 20 nM final; read-out: Jurkat HPDL1 PD1 IC50 (uM) (Method 1).
As to `CC(C)C[C@@H]1NC(=O)[C@H](CCCNC(=N)N)NC(=O)[C@@H](CC(C)C)NC(=O)[C@H](C)N(C)C(=O)[C@H](CCC(=O)O)NC(=O)[C@H](Cc2ccc(-c3ccccc3)cc2)NC(=O)[C@H](C(C)C)NC(=O)[C@H](Cc2c[nH]c3ccccc23)NC(=O)[C@H](CC(=O)O)NC(=O)[C@H](Cc2ccc(O)cc2)NC(=O)[C@H](CC(N)=O)NC(=O)CSC[C@@H](C(=O)N[C@@H](C)C(N)=O)NC(=O)[C@H](CO)NC(=O)[C@H](C(C)C)NC1=O` [Compound 1256] ({CH2CO}-NYDWV[Bip]E[NMeA][dL]RLVSCA-NH2; thioether N-14), the IC50 turned out to be 0.06 µM.

As to `CC(C)C[C@@H]1NC(=O)[C@H](CCN)NC(=O)[C@@H](CC(C)C)NC(=O)[C@H](C)N(C)C(=O)[C@H](C(C)C)NC(=O)[C@H](Cc2ccc(-c3ccccc3)cc2)NC(=O)[C@H](C(C)C)NC(=O)[C@H](Cc2c[nH]c3ccccc23)NC(=O)[C@H](CC(=O)O)NC(=O)[C@H](Cc2ccc(O)cc2)NC(=O)[C@H](CN)NC(=O)CSC[C@@H](C(=O)N[C@@H](C)C(N)=O)NC(=O)[C@H]([C@@H](C)O)NC(=O)[C@H](C(C)C)NC1=O` [Compound 1360] ({CH2CO}-[Dap]YDWV[Bip]V[NMeA][dL][Dab]LVTCA-NH2; thioether N-14), the IC50 stood at 0.02 µM.

For the compound `Cc1cccc(C[C@@H]2NC(=O)[C@H](CC(=O)O)NC(=O)[C@H](Cc3ccc(C(=O)O)cc3)NC(=O)[C@H](Cc3ccncc3)NC(=O)CSC[C@@H](C(=O)N[C@@H](CO)C(N)=O)NC(=O)[C@H](CCC(=O)O)NC(=O)[C@H](C(C)(C)O)NC(=O)[C@H](CC3CCCCC3)NC(=O)[C@H](CCN)NC(=O)[C@@H](CC(C)C)NC(=O)[C@H](C)N(C)C(=O)[C@H](Cc3ccc(OCC(=O)O)cc3)NC(=O)[C@H](Cc3ccc(-c4ccccc4)cc3)NC(=O)[C@H](Cc3ccc(OCC(=O)O)cc3)NC2=O)c1` [Compound 2194] ({CH2CO}-[4Pal][Phe(4-COOH)]D[Phe(3-Me)]Y(Carboxymethyl)[Bip]Y(Carboxymethyl)[NMeA][dL][Dab][Cha][Val(3-OH)]ECS-NH2; thioether N-14), the IC50 was determined as 0.26 µM.

In the case of `Cc1cccc(C[C@@H]2NC(=O)[C@H](CC(=O)O)NC(=O)[C@H](Cc3ccc(OCC(=O)O)cc3)NC(=O)[C@H](Cc3ccncc3)NC(=O)CSC[C@@H](C(=O)N[C@@H](C)C(N)=O)NC(=O)[C@H]([C@@H](C)O)NC(=O)[C@H](C(C)C)NC(=O)[C@H](CC(C)C)NC(=O)[C@H](CCN)NC(=O)[C@@H](CC(C)C)NC(=O)[C@H](C)N(C)C(=O)[C@H](CCCNC(N)=O)NC(=O)[C@H](Cc3ccc(-c4ccccc4)cc3)NC(=O)[C@H](C(C)C)NC2=O)c1` [Compound 1421] ({CH2CO}-[4Pal]Y(Carboxymethyl)D[Phe(3-Me)]V[Bip][Cit][NMeA][dL][Dab]LVTCA-NH2; thioether N-14), the IC50 is 0.01 µM.

For the compound `CC(C)C[C@@H]1NC(=O)[C@H](CCCNC(=N)N)NC(=O)[C@@H](CC(C)C)NC(=O)[C@H](C)N(C)C(=O)[C@H](CCCNC(=N)N)NC(=O)[C@H](Cc2ccc(-c3ccccc3)cc2)NC(=O)[C@H](C(C)C)NC(=O)[C@H](Cc2c[nH]c3ccccc23)NC(=O)[C@H](CC(=O)O)NC(=O)[C@H](CCc2ccc(O)cc2)NC(=O)[C@H](Cc2ccccc2)NC(=O)CSC[C@@H](C(=O)N[C@@H](C)C(N)=O)NC(=O)[C@H]([C@@H](C)O)NC(=O)[C@H](C(C)C)NC1=O` [Compound 1106] ({CH2CO}-F[hTyr]DWV[Bip]R[NMeA][dL]RLVTCA-NH2; thioether N-14), the IC50 amounted to 0.07 µM.

Turning to `CC(C)C[C@@H]1NC(=O)[C@H](CCCCN)NC(=O)[C@@H](CC(C)C)NC(=O)[C@H](C)N(C)C(=O)[C@H](Cc2cnc[nH]2)NC(=O)[C@H](Cc2ccc(-c3ccccc3)cc2)NC(=O)[C@H](C(C)C)NC(=O)[C@H](Cc2c[nH]c3ccccc23)NC(=O)[C@H](CC(=O)O)NC(=O)[C@H](Cc2ccc(O)cc2)NC(=O)[C@H](CC(N)=O)NC(=O)CSC[C@@H](C(=O)N[C@@H](C)C(N)=O)NC(=O)[C@H](CO)NC(=O)[C@H](C(C)C)NC1=O` [Compound 1482] ({CH2CO}-NYDWV[Bip]H[NMeA][dL]KLVSCA-NH2; thioether N-14), the IC50 amounted to 0.11 µM.

By IC50 is commonly meant the concentration at which inhibition is half-maximal.

The values are drawn from patent US20240409585A1, “MACROCYCLIC IMMUNOMODULATORS” (priority 2021, published 2024).
